Results taken from BigSolDB 2.1.

CN(Cc1ccccc1)CN1C(=O)C(=NNC(=O)c2ccccc2OCc2ccccc2)c2ccccc21
Details	solubility (mole fraction)
in PEG-400, 298.15 K	0.007
in PEG-400, 303.15 K	0.00778
in PEG-400, 308.15 K	0.00883
in PEG-400, 313.15 K	0.00988
in PEG-400, 318.15 K	0.0113

in water
Details	solubility (mole fraction)
298.15 K	1.07e-06
303.15 K	1.48e-06
308.15 K	1.89e-06
313.15 K	2.39e-06
318.15 K	2.97e-06
